Molecules are shown by their SMILES.

This experiment addresses human NAMPT enzyme (His-hNAMPT) (Homo sapiens (Human), UniProt P43490). Put plainly: NAMPT enzymatic inhibition assay (fluorescence, NADH product). Type of experiment: biochemical. To be noted: [BPS]; read-out: NAMPT IC50 (μM) [BPS]. The protocol:
The compounds were then diluted 20 fold in an intermediate dilution to 5% DMSO and water. Finally 10 μL of each compound was added to the assay plate, in duplicate, with highest concentration at 30 μM and the lowest at 0.001 μM in a final volume of 50 μL and 1% DMSO concentration. Each assay also tested, in parallel, two reference compounds, FK866 and GMX1778, with highest concentration at 10 μM and lowest at 0.0003 μM. 200 ng of human NAMPT enzyme (His-hNAMPT obtained from E. coli expression system) diluted in […] (tris-buffered saline-Polysorbate 20) 1× was added to each well in a volume of 10 μL and the compounds were incubated with the enzyme at room temperature for 20 minutes. After the incubation, 30 μL of master mixture were added to each well. The master mixture contained: 50 mM Tris-HCl, pH 8.0, 12.5 mM MgCl2, 20 μM nicotinamide, 40 μM phosphoribosyl pyrophosphate (PRPP), 20 μM adenosine triphosphate (ATP), 30 μg/mL of alcohol dehydrogenase, 10 μg/mL of NMNAT, 1.5% alcohol, 1 mM dithiothreitol (DTT), 0.02% bovine serum albumin (BSA), 0.01% Tween 20. The reaction was performed at 30° C. for 60 minutes. Fluorescence intensity was measured at an excitation of 340 nm and an emission of 460 nm using a Tecan Infinite M1000 microplate reader. The fluorescence values indicated increase of NADH product.
Enzyme activity assay was performed in duplicate at each concentration. The fluorescence data was analyzed and compared. In the absence of the compound, the intensity (Ce) in each data set was defined as 100% activity. In the absence of enzyme, the intensity (C0) in each data set was defined as 0% activity. The percent activity in the presence of each compound was calculated according to the following equation: % activity=(C−C0)/(Ce−C0), where C is the fluorescence in the presence of the compound.
The % activity vs. compound concentrations were then plotted using non-linear regression analysis of Sigmoidal dose-response curve generated with the equation Y=B+(T−B)/1+10^((Log EC50-X)×Hill Slope), where Y is percent activity, B is minimum percent activity, T is maximum percent activity, X is logarithm of compound and Hill Slope=slope factor or Hill coefficient.

Chain of human NAMPT enzyme (His-hNAMPT) (P43490 whole entry): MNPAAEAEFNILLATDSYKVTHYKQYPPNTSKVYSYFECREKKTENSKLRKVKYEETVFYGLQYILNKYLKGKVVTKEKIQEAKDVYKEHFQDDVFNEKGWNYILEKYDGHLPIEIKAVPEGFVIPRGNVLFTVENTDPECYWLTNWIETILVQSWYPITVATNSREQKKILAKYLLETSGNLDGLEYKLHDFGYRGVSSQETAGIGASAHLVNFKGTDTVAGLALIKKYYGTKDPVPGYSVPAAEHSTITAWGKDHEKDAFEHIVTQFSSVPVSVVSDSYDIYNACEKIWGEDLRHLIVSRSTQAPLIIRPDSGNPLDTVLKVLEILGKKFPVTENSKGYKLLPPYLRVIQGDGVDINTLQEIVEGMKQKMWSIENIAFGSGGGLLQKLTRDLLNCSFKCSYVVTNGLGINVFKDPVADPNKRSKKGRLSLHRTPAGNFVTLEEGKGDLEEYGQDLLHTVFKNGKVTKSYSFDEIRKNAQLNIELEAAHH

A word on the IC50: it is the concentration needed to halve the response being measured. For `CCN(CC)C(=O)N1C[C@@H]2[C@@H](CCNC(=O)/C=C/c3ccc(N)nc3)[C@@H]2C1` [Example 33, (1R,5S,6s)-6-(2-((E)-3-(6-aminopyridin-3-yl)acrylamido)ethyl)-N,N-diethyl-3-azabicyclo[3.1.0]hexane-3-carboxamide], the IC50 lay in the range of 0.01 to 0.49 µM.
For `Nc1ccc(/C=C/C(=O)NCC[C@@H]2[C@H]3CN(C(=O)OC4CCCC4)C[C@@H]23)cn1` [Example 34, (1R,5S,6s)-cyclopentyl 6-(2-((E)-3-(6-aminopyridin-3-yl)acrylamido)ethyl)-3-azabicyclo[3.1.0]hexane-3-carboxylate] the value was 0.01 to 0.49 µM.
For the molecule `CC1(OC(=O)N2C[C@@H]3[C@@H](CCNC(=O)/C=C/c4ccncc4)[C@@H]3C2)COC1` [Example 35, (1R,5S,6s)-3-methyloxetan-3-yl 6-(2-((E)-3-(pyridin-4-yl)acrylamido)ethyl)-3-azabicyclo[3.1.0]hexane-3-carboxylate], the 50% inhibitory concentration (IC50) is 1 to 29 µM.
With `CC1(OC(=O)N2C[C@@H]3[C@@H](CCNC(=O)c4cc5cnccc5[nH]4)[C@@H]3C2)COC1` [Example 36, (1R,5S,6s)-3-methyloxetan-3-yl 6-(2-(1H-pyrrolo[3,2-c]pyridine-2-carboxamido)ethyl)-3-azabicyclo[3.1.0]hexane-3-carboxylate] the figure was 0.01 to 0.49 µM; with `CC1(OC(=O)N2C[C@@H]3[C@@H](CCNC(=O)c4cc5cnccc5s4)[C@@H]3C2)COC1` [Example 37, (1R,5S,6s)-3-methyloxetan-3-yl 6-(2-(thieno[3,2-c]pyridine-2-carboxamido)ethyl)-3-azabicyclo[3.1.0]hexane-3-carboxylate], 0.01 to 0.49 µM; with `CC1(OC(=O)N2C[C@@H]3[C@@H](CCNC(=O)c4ccc5nccn5c4)[C@@H]3C2)COC1` [Example 38, (1R,5S,6s)-3-methyloxetan-3-yl 6-(2-(imidazo[1,2-a]pyridine-6-carboxamido)ethyl)-3-azabicyclo[3.1.0]hexane-3-carboxylate], 0.01 to 0.49 µM.
For `Nc1ccc(/C=C/C(=O)NCC[C@@H]2[C@H]3CN(C(=O)N4CCCC4)C[C@@H]23)cn1` [Example 39, (E)-3-(6-aminopyridin-3-yl)-N-(2-((1R,5S,6s)-3-(pyrrolidine-1-carbonyl)-3-azabicyclo[3.1.0]hexan-6-yl)ethyl)acrylamide], the IC50 fell in the range of 0.01 to 0.49 µM.
In the case of `Nc1ccc(/C=C/C(=O)NCC[C@@H]2[C@H]3CN(C(=O)Oc4ccccc4)C[C@@H]23)cn1` [Example 40, (1R,5S,6s)-phenyl 6-(2-((E)-3-(6-aminopyridin-3-yl)acrylamido)ethyl)-3-azabicyclo[3.1.0]hexane-3-carboxylate], the IC50 lay within 0.01 to 0.49 µM.
For the molecule `Nc1ccc(/C=C/C(=O)NCC[C@@H]2[C@H]3CN(C(=O)OC4CCOCC4)C[C@@H]23)cn1` [Example 41, (1R,5S,6s)-tetrahydro-2H-pyran-4-yl 6-(2-((E)-3-(6-aminopyridin-3-yl)acrylamido)ethyl)-3-azabicyclo[3.1.0]hexane-3-carboxylate], the IC50 lay within 0.01 to 0.49 µM.
For `CC1(OC(=O)N2C[C@@H]3[C@@H](CCNC(=O)N4Cc5ccc(F)cc5C4)[C@@H]3C2)COC1` [Example 42, (1R,5S,6s)-3-methyloxetan-3-yl 6-(2-(5-fluoroisoindoline-2-carboxamido)ethyl)-3-azabicyclo[3.1.0]hexane-3-carboxylate] the value was 0.01 to 0.49 µM.
With `CC1(OC(=O)N2C[C@@H]3[C@@H](CCNC(=O)c4cnc5nccn5c4)[C@@H]3C2)COC1` [Example 43, (1R,5S,6s)-3-methyloxetan-3-yl 6-(2-(imidazo[1,2-a]pyrimidine-6-carboxamido)ethyl)-3-azabicyclo[3.1.0]hexane-3-carboxylate] the figure was 0.01 to 0.49 µM.
With `CC1(OC(=O)N2C[C@@H]3[C@@H](CCNC(=O)c4ccc5ncsc5c4)[C@@H]3C2)COC1` [Example 44, (1R,5S,6s)-3-methyloxetan-3-yl 6-(2-(benzo[d]thiazole-6-carboxamido)ethyl)-3-azabicyclo[3.1.0]hexane-3-carboxylate] the figure was 0.01 to 0.49 µM; with `Nc1ccc(/C=C/C(=O)NCC[C@@H]2[C@H]3CN(S(=O)(=O)c4ccccc4)C[C@@H]23)cn1` [Example 45, (E)-3-(6-aminopyrdiin-3-yl)-N-(2-((1R,5S,6s)-3-(phenylsulfonyl)-3-azabicyclo[3.1.0]hexan-6-yl)ethyl)acrylamide], 0.01 to 0.49 µM; with `Nc1ccc(/C=C/C(=O)NCC[C@@H]2[C@H]3CN(S(=O)(=O)c4ccc(F)cc4)C[C@@H]23)cn1` [Example 46, (E)-3-(6-aminopyridin-3-yl)-N-(2-((1R,5S,6s)-3-((4-fluorophenyl)sulfonyl)-3-azabicyclo[3.1.0]hexan-6-yl)ethyl)acrylamide], 0.01 to 0.49 µM.
For `Nc1ccc(/C=C/C(=O)NCC[C@@H]2[C@H]3CN(S(=O)(=O)C4CCOCC4)C[C@@H]23)cn1` [Example 47, (E)-3-(6-aminopyridin-3-yl)-N-(2-((1R,5S,6s)-3-((tetrahydro-2H-pyran-4-yl)sulfonyl)-3-azabicyclo[3.1.0]hexan-6-yl)ethyl)acrylamide], the concentration for half-maximal inhibition (IC50) was in the range of 0.01 to 0.49 µM.
For `Nc1ccc(/C=C/C(=O)NCC[C@@H]2[C@H]3CN(S(=O)(=O)C4CCCC4)C[C@@H]23)cn1` [Example 48, (E)-3-(6-aminopyridin-3-yl)-N-(-2 ((1R,5S,6s)-3-(cyclopentylsulfonyl)-3-azabicyclo[3.1.0]hexan-6-yl)ethyl)acrylamide] the value was 0.01 to 0.49 µM.
With `CC1(OC(=O)N2C[C@@H]3[C@@H](CCNC(=O)c4ccc5nc(N)sc5c4)[C@@H]3C2)COC1` [Example 49, (1R,5S,6s)-3-methyloxetan-3-yl 6-(2-(2-aminobenzo[d]thiazole-6-carboxamido)ethyl)-3-azabicyclo[3.1.0]hexane-3-carboxylate] the figure was 1 to 29 µM; with `CC1(OC(=O)N2C[C@@H]3[C@@H](CCNC(=O)c4cc(-c5cccnc5)on4)[C@@H]3C2)COC1` [Example 50, (1R,5S,6s)-3-methyloxetan-3-yl 6-(2-(5-(pyridin-3-yl)isoxazole-3-carboxamido)ethyl)-3-azabicyclo[3.1.0]hexane-3-carboxylate], 0.01 to 0.49 µM; with `Nc1ccc(/C=C/C(=O)NCC[C@@H]2[C@H]3CN(C(=O)OC4Cc5ccccc5C4)C[C@@H]23)cn1` [Example 51, (1R,5S,6s)-2,3-dihydro-1H-inden-2-yl 6-(2-((E)-3-(6-aminopyridin-3-yl)acrylamido)ethyl)-3-azabicyclo[3.1.0]hexane-3-carboxylate], 0.01 to 0.49 µM.
Consider `CN1CCC(OC(=O)N2C[C@@H]3[C@@H](CCNC(=O)/C=C/c4ccc(N)nc4)[C@@H]3C2)CC1` [Example 52, (1R,5S,6s)-(1-methylpiperidin)-4-yl 6-(2-((E)-3-(6-aminopyridin-3-yl)acrylamido)ethyl)-3-azabicyclo[3.1.0]hexane-3-carboxylate], for which the 50% inhibitory concentration (IC50) lay in the range of 0.01 to 0.49 µM.
Consider `CC1(OC(=O)N2C[C@@H]3[C@@H](CCNC(=O)/C=C/c4cnc(N)nc4)[C@@H]3C2)COC1` [Example 54, (1R,5S,6s)-3-methyloxetan-3-yl 6-(2-((E)-3-(2-aminopyrimidin-5-yl)acrylamido)ethyl)-3-azabicyclo[3.1.0]hexane-3-carboxylate], for which the IC50 was in the range of 1 to 29 µM.
For `CC1(OC(=O)N2C[C@@H]3[C@@H](CCNC(=O)c4cnc5[nH]ncc5c4)[C@@H]3C2)COC1` [Example 55, (1R,5S,6s)-3-methyloxetan-3-yl 6-(2-(1H-pyrazolo[3,4-b]pyridine-5-carboxamido)ethyl)-3-azabicyclo[3.1.0]hexane-3-carboxylate] the value was greater than 30 µM.

For the origin of these results see US12421210B2, “Fused bicyclic heterocycles as therapeutic agents” (NEW YORK UNIVERSITY, priority 2018, dated 2025).
